Key:
cells = details: as reported by SHAN GAO, et al. (2019); cited from earlier work
[1] = system: androgen-related proteins; experiment: Overall effect on androgen-related proteins increased by DHT in LNCaP cells; type: cell-based, human; details: 5 μM, compared among tanshinone1, tanshinone2a, cryptotanshinone, 15,16-dihydrotanshinone
Method: (§1) Animal cells were cultured to investigate the effect of the Salvia miltiorrhiza Bunge extract of the present invention on benign prostatic hyperplasia or alopecia. Human prostate adenocarcinoma cell line LNCaP cells sensitive to androgens were used as animal cells, and purchased from the Korean Cell Line Bank (Seoul, Korea, KCLB #:21740). The cells were cultured in Roswell Park Memorial Institute (RPMI) medium supplemented with […] penicillin/streptomycin and 10% fetal bovine serum (FBS), and maintained in a CO2 incubator at 37° C.
(§2) Goat anti-rabbit immunoglobulin G (IgG, 7074) and anti-mouse IgG (7076) were purchased from Cell Signaling (Danvers, Mass.). […]
(§3) The LNCaP cells were seeded onto 6-well plates (1×10^6 cells/well) in 2 mL of RPMI medium supplemented with 10% FBS, 100 U/mL penicillin, and […] streptomycin. […] The lysed cells were centrifuged at 13,000 RPM for 20 minutes at 4° C., and the protein concentration was determined using BCA assay. […] The chemiluminescent intensities of protein signals were quantified using ImageJ 1.47 v software, and the results are shown in FIG. 2. The data obtained by SPSS version 11.5 for Windows (SPSS Inc., Chicago, Ill., USA) were expressed as the means±standard errors of the means (SEM). […]

[2] = system: steroid receptor coactivator-1 (SRC-1); experiment: Western blot of SRC-1 expression in DHT-treated LNCaP cells; type: cell-based, human; details: 5 μM, DHT-induced LNCaP cells
Method: as §1, §2, §3

androgen receptor (AR) = experiment: Western blot of AR expression in DHT-treated LNCaP cells; type: cell-based, human; details: 5 μM, same concentration as tanshinone2a, DHT-induced LNCaP cells
Method: as §1, §2, §3

[3] = system: 5α-reductase type 2 (5AR2); experiment: Western blot of 5AR2 expression in DHT-treated LNCaP cells; type: cell-based, human; details: 5 μM, DHT-induced LNCaP cells
Method: as §1, §2, §3

[4] = system: prostate-specific antigen (PSA); experiment: Western blot of PSA expression in DHT-treated LNCaP cells; type: cell-based, human; details: 5 μM, same concentration as tanshinone2a, DHT-induced LNCaP cells
Method: as §1, §2, §3

[5] = Body weight in benign prostatic hyperplasia animal models; type: in vivo, Sprague-Dawley rats; details: BPH rats, oral once/day 14 days; extracts and saw palmetto 10-25 mg/kg, finasteride 10 mg/kg
Method: Sprague-Dawley rats aged 9 weeks (body weights of 350 g or less) were acclimated for one week or longer, and then used in tests. In order to induce benign prostatic hyperplasia, testicles were removed and then testosterone (dissolved in corn oil) was subcutaneously injected at a dose of 3 mg/kg once/three days for a total of 10 times. […] For the benign prostatic hyperplasia induction groups, testicles were removed and then […] (dissolved in corn oil) was subcutaneously injected at a dose of 3 mg/kg once/three days for a total of 10 times, by the same method as in Example 4.1. For the normal group, an equivalent amount of corn oil was subcutaneously injected. Salvia miltiorrhiza Bunge extracts T70 to T10 and saw palmetto fruit extract were dissolved in distilled water, and orally administered at a dose of 10-25 mg/kg once/day, for 14 days. For the finasteride administration group (Sigma, dissolved in 0.2% Tween 80), finasteride was orally administered at a dose of 10 mg/kg once/day for 14 days. For the negative control group, only distilled water was orally administered. The body weight was measured upon the end of the test, and on the next day after the ending of the last dosing and treatment, the SD-rats were sacrificed with carbon dioxide gas, and then the prostate tissue was extracted and the weight was measured. […]

In the case of `O=C(/C=C/c1ccc(O)c2c1[C@H](C(=O)O[C@H](Cc1ccc(O)c(O)c1)C(=O)O)[C@@H](c1ccc(O)c(O)c1)O2)O[C@H](Cc1ccc(O)c(O)c1)C(=O)O` [salvianolic acid B], the cytotoxicity (cells) is given as “has cytotoxicity at a predetermined concentration”.
For `Cc1cccc2c3c(ccc12)C1=C(C(=O)C3=O)[C@@H](C)CO1` [15,16-dihydrotanshinone, (1R)-1,6-dimethyl-1,2-dihydronaphtho[1,2-g][1]benzofuran-10,11-dione], the “inhibitory effect on androgen-related proteins increased by DHT” value [1] was “most inhibitory effect”, the “inhibition of SRC-1 expression” value [2] was “more effectively than tanshinone2a” and the “inhibition of AR expression relative to tanshinone2a” value (androgen receptor (AR)) was “at least 5 times”. The “inhibition of 5AR2 expression” value [3] was “more effectively than tanshinone2a” and the “inhibition of PSA expression relative to tanshinone2a” value [4] was “at least 5 times”.
For `CC(C)(C)NC(=O)[C@H]1CC[C@H]2[C@@H]3CC[C@H]4NC(=O)C=C[C@]4(C)[C@H]3CC[C@]12C` [finasteride], the “body weight compared with control group (Con)” value [5] was “no great difference”.

Reference: patent US20210369803A1, “COMPOSITION CONTAINING SALVIA MILTIORRHIZA BUNGE EXTRACT AS ACTIVE INGREDIENT FOR TREATMENT OR PREVENTION OF BENIGN PROSTATIC HYPERPLASIA OR ALOPECIA” (CUROME BIOSCIENCES CO., LTD., priority 2019, published 2021)
